The numbers were not newly measured in patent EP1288303A1, “Inducible expression systems employing PPAR transcriptional activators” (Aventis Pharma S.A., priority 2001, dated 2003), which cites them from elsewhere.

The structures appear in SMILES notation.

The conditions of the data set: form not soluble in water; doses between 5 and 50 mg/kg, for example 30 mg/kg.

Consider `CN(CCOc1ccc(CC2SC(=O)NC2=O)cc1)c1ccccn1` (stereo not shown) [BRL49653, rosiglitazone], for which the plasma concentration result was “about 15 µg/ml”.
